Experimental data as given in patent US8828696B2, “Use of Penicillin G Procaine as a selective antimicrobial agent in the production of alcohol by fermentation” (Lallemand Specialites, Inc, priority 2008, dated 2014).

System: Lactobacillus fermentum
Assay: Bacterial inhibition test
Format: cell-based
Design: key: successful test corresponding to no growth is represented as (=); barely discernable growth is represented as (±); easily noticeable bacterial growth is represented as (+)
Source text: To directly measure the efficacy of Penicillin G Procaine and Penicillin G Potassium a bacterial inhibition test was designed using industrial isolates and chosen ATCC strains. The inhibition testing was spread over 0.1 ppm to 5.0 ppm for the Lactobacillus fermentum and 1.0 ppm to 5.0 ppm for Lactobacillus brevis species of bacteria due to the lack of response of Lactobacillus brevis at lower concentrations. […] The strains used were two isolates of Lactobacillus fermentum and 2 isolates of Lactobacillus brevis. The Lactobacillus fermentum series contained both an industry derived isolate Ind 1 and an ATCC strain while the Lactobacillus brevis series comprised of two isolates, Ind 1 and Ind 43 derived from the ethanol plants. The inhibition test plates were set in triplicate and read at 12 hour intervals up to 48 hours of test endpoint. The results below represent the mode average of the outcome from the triplicate inhibitory test sets for each trial. Table 11 lists the Lactobacillus fermentum and the Lactobacillus brevis results of the inhibition testing as follows: successful test corresponding to no growth is represented as (=), barely discernable growth is represented as (±) and easily noticeable bacterial growth is represented as (+). The set of control tests depict (=) control as just broth and (+) control as just broth with bacteria but without any antibiotic.
The trial was set up as follows:
• 1. Weigh out 0.1 g of each sample to be tested into a 15 ml centrifuge tube. • 2. Dissolve sample into 10 ml sterile water. […] Add antibiotic to clean tube, add 2 ml water. • b. Vortex, if antibiotic goes into solution add water for final volume of 10 ml. • c. […] Vortex until all material is in solution. • 3. Vortex the solutions to make sure that they are well mixed. • 4. Filter the solutions through a 0.2 μm syringe filter into a second labeled sterile centrifuge tube. • 5. Add antibiotic solution to MRS Broth for a final volume of 10 ml at the test concentration for each antibiotic. • 6. Mix organism solutions and add 2 μl to each of 3 wells of a 24 well plate. If tubes are used add the 2 μl to each of three tubes for each antibiotic. • 7. Transfer 1 ml of the antibiotic-broth solution to each well containing bacteria. • 8. Recap remaining antibiotic solution and return the tube to the tube rack. This tube will become the negative control for each dilution created. • 9. Add four μl of each bacterial culture to another set of wells and add […] of broth without antibiotics. These wells will be the positive controls. • 10. Incubate plates and tubes at 33 C for 48 hours, examining all samples at 24 hours for growth. Any turbidity detected should be a result of bacterial growth.

[1] = ATCC L. fermentum, 0.1 ppm, Inc Time 12
[2] = ATCC L. fermentum, 0.1 ppm, Inc Time 24
[3] = ATCC L. fermentum, 0.1 ppm, Inc Time 36
[4] = ATCC L. fermentum, 0.1 ppm, Inc Time 48
[5] = ATCC L. fermentum, 0.3 ppm, Inc Time 12
[6] = ATCC L. fermentum, 0.3 ppm, Inc Time 24
[7] = ATCC L. fermentum, 0.3 ppm, Inc Time 36
[8] = ATCC L. fermentum, 0.3 ppm, Inc Time 48
[9] = ATCC L. fermentum, 0.5 ppm, Inc Time 12
[10] = ATCC L. fermentum, 0.5 ppm, Inc Time 24
[11] = ATCC L. fermentum, 0.5 ppm, Inc Time 36
[12] = ATCC L. fermentum, 0.5 ppm, Inc Time 48
[13] = ATCC L. fermentum, 1 ppm, Inc Time 12
[14] = ATCC L. fermentum, 1 ppm, Inc Time 24
[15] = ATCC L. fermentum, 1 ppm, Inc Time 36
[16] = ATCC L. fermentum, 1 ppm, Inc Time 48
[17] = ATCC L. fermentum, 5 ppm, Inc Time 12
[18] = ATCC L. fermentum, 5 ppm, Inc Time 24
[19] = ATCC L. fermentum, 5 ppm, Inc Time 36
[20] = ATCC L. fermentum, 5 ppm, Inc Time 48
[21] = Ind 1 L. fermentum, 0.1 ppm, Inc Time 12
[22] = Ind 1 L. fermentum, 0.1 ppm, Inc Time 24
[23] = Ind 1 L. fermentum, 0.1 ppm, Inc Time 36
[24] = Ind 1 L. fermentum, 0.1 ppm, Inc Time 48
[25] = Ind 1 L. fermentum, 0.3 ppm, Inc Time 12
[26] = Ind 1 L. fermentum, 0.3 ppm, Inc Time 24
[27] = Ind 1 L. fermentum, 0.3 ppm, Inc Time 36
[28] = Ind 1 L. fermentum, 0.3 ppm, Inc Time 48
[29] = Ind 1 L. fermentum, 0.5 ppm, Inc Time 12
[30] = Ind 1 L. fermentum, 0.5 ppm, Inc Time 24
[31] = Ind 1 L. fermentum, 0.5 ppm, Inc Time 36
[32] = Ind 1 L. fermentum, 0.5 ppm, Inc Time 48
[33] = Ind 1 L. fermentum, 1.0 ppm, Inc Time 12
[34] = Ind 1 L. fermentum, 1.0 ppm, Inc Time 24
[35] = Ind 1 L. fermentum, 1.0 ppm, Inc Time 36
[36] = Ind 1 L. fermentum, 1.0 ppm, Inc Time 48
[37] = Ind 1 L. fermentum, 5.0 ppm, Inc Time 12
[38] = Ind 1 L. fermentum, 5.0 ppm, Inc Time 24
[39] = Ind 1 L. fermentum, 5.0 ppm, Inc Time 36
[40] = Ind 1 L. fermentum, 5.0 ppm, Inc Time 48

Structure (SMILES) | bacterial growth in inhibition test [1] | bacterial growth in inhibition test [2] | bacterial growth in inhibition test [3] | bacterial growth in inhibition test [4] | bacterial growth in inhibition test [5] | bacterial growth in inhibition test [6] | bacterial growth in inhibition test [7] | bacterial growth in inhibition test [8] | bacterial growth in inhibition test [9] | bacterial growth in inhibition test [10] | bacterial growth in inhibition test [11] | bacterial growth in inhibition test [12] | bacterial growth in inhibition test [13] | bacterial growth in inhibition test [14] | bacterial growth in inhibition test [15] | bacterial growth in inhibition test [16] | bacterial growth in inhibition test [17] | bacterial growth in inhibition test [18] | bacterial growth in inhibition test [19] | bacterial growth in inhibition test [20] | further results
CC1(C)S[C@@H]2[C@H](NC(=O)Cc3ccccc3)C(=O)N2[C@H]1C(=O)O.CCN(CC)CCOC(=O)c1ccc(N)cc1 [Penicillin G Procaine] | = | = | = | ± | = | = | = | = | = | = | = | = | = | = | = | = | = | = | = | = | bacterial growth in inhibition test [21]: =; bacterial growth in inhibition test [22]: ±; bacterial growth in inhibition test [23]: ±; bacterial growth in inhibition test [24]: ±; bacterial growth in inhibition test [25]: =; bacterial growth in inhibition test [26]: =; bacterial growth in inhibition test [27]: =; bacterial growth in inhibition test [28]: ±; bacterial growth in inhibition test [29]: =; bacterial growth in inhibition test [30]: =; bacterial growth in inhibition test [31]: =; bacterial growth in inhibition test [32]: =; bacterial growth in inhibition test [33]: =; bacterial growth in inhibition test [34]: =; bacterial growth in inhibition test [35]: =; bacterial growth in inhibition test [36]: =; bacterial growth in inhibition test [37]: =; bacterial growth in inhibition test [38]: =; bacterial growth in inhibition test [39]: =; bacterial growth in inhibition test [40]: =
CC1(C)S[C@@H]2[C@H](NC(=O)Cc3ccccc3)C(=O)N2[C@H]1C(=O)[O-].[K+] [Penicillin G Potassium] | = | = | ± | ± | = | = | = | = | = | = | = | = | = | = | = | = | = | = | = | = | bacterial growth in inhibition test [21]: =; bacterial growth in inhibition test [22]: ±; bacterial growth in inhibition test [23]: ±; bacterial growth in inhibition test [24]: ±; bacterial growth in inhibition test [25]: =; bacterial growth in inhibition test [26]: =; bacterial growth in inhibition test [27]: ±; bacterial growth in inhibition test [28]: ±; bacterial growth in inhibition test [29]: =; bacterial growth in inhibition test [30]: =; bacterial growth in inhibition test [31]: =; bacterial growth in inhibition test [32]: =; bacterial growth in inhibition test [33]: =; bacterial growth in inhibition test [34]: =; bacterial growth in inhibition test [35]: =; bacterial growth in inhibition test [36]: =; bacterial growth in inhibition test [37]: =; bacterial growth in inhibition test [38]: =; bacterial growth in inhibition test [39]: =; bacterial growth in inhibition test [40]: =
